Source: patent US20240247289A1, “ANTIBIOTIC FREE FERMENTATIONS, SYSTEMS AND METHODS FOR ACHIEVING ANTIBIOTIC FREE FERMENTATIONS, AND FE[…]-PRODUCTS GENERATED BY ANTIBIOTIC FREE FERMENTATIONS” (POET Research, Inc., priority 2023, published 2024)

Legend:
lactic acid bacteria [1] = conditions: cook process fermentation, infected, formic acid 100-400 ppm without hop acids (FIG. 4)
Experimental: (§1) Saccharomyces cerevisiae, was added to a yeast propagation set up as follows. Liquefied corn slurry acquired from a biorefinery was diluted in an appropriate ratio to obtain slurry (mash) with 20 percent dry solids (including the solids contributed by the pre-blend water). The pH of the slurry liquefact was approximately 5.0-5.5. The enzyme blend for fermentation was added to the slurry. Urea (50 percent liquor) was added to the slurry to give a final concentration of approximately 1000 ppm urea. The slurry was dispensed in 100 milliliter wide mouth bottles at 60 milliliters per bottle. The bottles were covered with a bottle cap with a 1/16″ hole drilled into the top for gas release following addition of enzyme and inoculation of the necessary organisms and placed stationary in a water bath. The fermentation temperature was held constant at 32.2 degrees Celsius for 8-16 hours. This yeast propagation was then used to inoculate fermentations including yeast at a ratio level of 2% total fermentation volume.
(§2) Liquefied corn slurry was acquired from a biorefinery with 30-35% percent dry solids (including the solids contributed by the pre-blend water). The pH of the slurry was approximately 5.0. The enzyme blend for fermentation was added to the slurry. Urea (50 percent liquor) was added to the slurry to give a final concentration of approximately 1000 ppm urea. The slurry was mixed in 100 milliliter wide mouth bottles at 60 milliliters per bottle. The bottles were covered with a bottle cap with a 1/16″ hole drilled into the top for gas release following addition of enzyme and inoculation of the necessary organisms and placed stationary in a water bath. The fermentation temperature was held constant at 33 degrees Celsius for 72 hours. Bottles were mixed well, and samples were withdrawn at various intervals during the course of fermentation and analyzed for sugars, organic acids and ethanol using high performance liquid chromatography (HPLC).

Saccharomyces cerevisiae [2] = conditions: cook process fermentation, infected
Experimental: as §1, §2

lactic acid bacteria [3] = conditions: RSH fermentation, infected samples, formic acid alone 100-400 ppm (FIG. 2)
Experimental: (§3) Saccharomyces cerevisiae, yeast was added to a yeast propagation set up as follows. Ground corn was mixed with “pre-blend” (a mixture of the waters from various streams that are reused in an ethanol production facility) in an appropriate ratio to obtain slurry (mash) with 35 percent dry solids (including the solids contributed by the pre-blend water). “Preblend” was used as make up water in these studies to simulate the composition of mash, employing an exemplary embodiment provided herein, as it would be in a commercial ethanol production facility. The pH of the corn and “pre blend” slurry was approximately 4.5-4.8. An enzyme blend for raw starch hydrolysis was added to the slurry. Urea (50 percent liquor) was added to the slurry to give a final concentration of approximately 1000 ppm urea. The slurry was mixed in 100 milliliter wide mouth bottles at 60 milliliters per bottle. The bottles were covered with a bottle cap with a 1/16″ hole drilled into the top for gas release following addition of enzyme and the yeast and placed stationary in a water bath. […]
(§4) The slurry was mixed in 100 milliliter wide mouth bottles at 60 milliliters per bottle. […] Bottles were mixed well, and samples were withdrawn at various intervals during the course of fermentation and analyzed for sugars, organic acids and ethanol using high performance liquid chromatography (HPLC).

Saccharomyces cerevisiae [4] = conditions: RSH fermentation, infected samples, formic acid alone 100-400 ppm, compared to other infected samples (FIG. 1)
Experimental: as §3, §4

O=CO [formic acid]
Ppm lactic acid at 72 hours (lactic acid bacteria [1]): decreased dose dependently | % v/v ethanol at 72 hours, vs Phibro Xact 2.5 ppm (Saccharomyces cerevisiae [2]; formic acid treated samples, at most dosages (FIG. 3)): greater than the % v/v ethanol generated by fermentation with Phibro Xact | % v/v ethanol at 72 hours (Saccharomyces cerevisiae [2]; increasing doses of formic acid alone 100-400 ppm (FIG. 3)): increase in % v/v ethanol | ppm lactic acid at 88 hours (lactic acid bacteria [3]): reduced lactic acid ppm at 88 hours fermentation in a dose dependent method | % v/v ethanol at 88 hours (Saccharomyces cerevisiae [4]): substantially reduced % v/v ethanol
